Several values for one entry are separate records, joined by “and”; a condition that tells them apart may be missing. Identical values can stand only once.
Assays:
[1] = Hydrodynamic radius and size distribution of micelles by dynamic light scattering (DLS); type: physicochemical; details: for Rh (nm), hydrodynamic radius of micelles: 1.0 wt % stated for M-/O-XMAs (FIG. 37); for size distribution of micelles (number of micelle sets): FIGS. 36 and 37
Description: A method for measuring the radius of a micelle is not particularly limited, but a method well known in the art may be used, and for example, the measurement may be performed using a dynamic light scattering (DLS) experiment.
(§1) Specifically, the critical micellar concentration (CMC) was measured using fluorescence staining and diphenylhexatriene (DPH), and the hydrodynamic radii (Rh) of the micelles formed by agents were measured through a dynamic light scattering (DLS) experiment. The measured results are shown in Tables 1 and 2, compared with a conventional amphiphilic molecule (detergent), DDM.

[2] = Critical micelle concentration by fluorescence staining with diphenylhexatriene (DPH); type: physicochemical; details: aqueous solution
Description: While a method for measuring CMC is not particularly limited, a method widely known in the art may be used, and the measurement may be performed by, for example, a fluorescence staining method using diphenylhexatriene (DPH).
as §1

[3] = molecular target: T1, melibiose permease (MelB) (Salmonella typhimurium, UniProt P30878); assay: MelB extraction from membranes and thermostability, SDS-PAGE and western blotting; details: for MelBSt stabilization ability compared with DDM: 1.5 wt % detergent, 0, 45, 55 and 65° C.
T1 construct: made in house; host or cells: Salmonella typhimurium DW2 cells (ΔmelB and ΔlacZY) (so in the source); membrane preparation
Description: An experiment for measuring the structural stability of the Salmonella typhimurium melibiose permease (MelB) protein due to XMAs was performed. The MelB protein was extracted on a membrane using XMAs and DDM, and the amount and structure of the extracted protein were analyzed by SDS-PAGE and western blotting. A concentration of the used compound was 1.5 wt %, and the protein was extracted at a different temperature (0, 45, 55, or 65° C.) to evaluate two kinds of performance such as protein extraction efficiency and stabilization ability of the compound at the same time. Membrane samples that were not treated with XMAs or DDM were used as controls.
Specifically, MelBSt stability due to DDM and XMAs was evaluated according to the method described in the paper (P. S. Chae, et al., Nat. Methods 2010, 7, 1003-1008) written by the inventor in 2010. The protein (MelBSt) was produced using plasmid pK95ΔAHB/WT MelBSt/CH10 encoding wild-type MelB with a 10-His tag at the C-terminus and Salmonella typhimurium DW2 cells (ΔmelB and ΔlacZY). Cell growth and membrane preparation were carried out according to the method described in the paper (Nat. Commun. 2014, 5, 3009) written by A. S. Ethayathulla et al. A protein assay was performed using a Micro BCA kit (Thermo Scientific, Rockford, Ill.). To measure solubilization/stability, MelBSt-containing membrane samples (final protein concentration of 10 mg/mL) were incubated with a solubilization buffer (20 mM sodium phosphate, pH 7.5, 200 mM NaCl, 10% glycerol, 20 mM melibiose) and 1.5% (w/v) DDM, P-XMAs (P-XMA-C8, P-XMA-C9, P-XMA-C10, P-XMA-C11 and P-XMA-C12), M-XMAs (M-XMA-C11, M-XMA-C12, M-XMA-C14, M-XMA-C16 and M-XMA-C18) or O-XMAs (O-XMA-C11, O-XMA-C12, O-XMA-C14, O-XMA-C16 and O-XMA-C18) at four different temperatures (0, 45, 55 and 65° C.) for 90 minutes. Following ultracentrifugation at 355,590 g in a Beckman Optima™ MAX ultracentrifuge using a TLA-100 rotor for 45 minutes at 4° C., 20 μg proteins were separated by SDS-16% PAGE, and then immunoblotted with a Penta-His-HRP antibody (Qiagen, Germantown, Md.). MelBSt was detected using a SuperSignal West Pico chemiluminescent substrate by an ImageQuant LAS 4000 Biomolecular Imager (GE Health Care Life Sciences).

[4] = 1.5 wt % detergent, 45° C., 90 minutes
[5] = 1.5 wt % detergent, 55° C., 90 minutes
[6] = 1.5 wt % detergent, 0° C., 90 minutes

T1 sequence (P30878 whole entry): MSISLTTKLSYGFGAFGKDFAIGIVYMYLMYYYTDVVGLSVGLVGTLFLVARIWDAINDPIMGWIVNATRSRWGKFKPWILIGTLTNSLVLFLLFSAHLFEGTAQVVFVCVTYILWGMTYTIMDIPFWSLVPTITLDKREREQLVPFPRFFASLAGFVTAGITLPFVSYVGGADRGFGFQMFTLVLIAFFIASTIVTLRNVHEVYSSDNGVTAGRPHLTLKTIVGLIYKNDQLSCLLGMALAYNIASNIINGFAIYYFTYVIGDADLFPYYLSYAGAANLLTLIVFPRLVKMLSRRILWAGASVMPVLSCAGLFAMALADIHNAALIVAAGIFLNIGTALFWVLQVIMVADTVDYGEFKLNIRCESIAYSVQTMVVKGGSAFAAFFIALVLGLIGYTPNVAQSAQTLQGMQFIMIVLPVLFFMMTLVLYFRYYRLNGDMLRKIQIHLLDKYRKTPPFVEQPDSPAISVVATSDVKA

## CCCCCCCCCCCCCCC(CO[C@@H]1OC(CO)[C@@H](O[C@@H]2OC(CO)[C@@H](O)C(O)C2O)C(O)C1O)(CO[C@@H]1OC(CO)[C@@H](O[C@@H]2OC(CO)[C@@H](O)C(O)C2O)C(O)C1O)Cc1ccccc1CC(CCCCCCCCCCCCCC)(CO[C@@H]1OC(CO)[C@@H](O[C@@H]2OC(CO)[C@@H](O)C(O)C2O)C(O)C1O)CO[C@@H]1OC(CO)[C@@H](O[C@@H]2OC(CO)[C@@H](O)C(O)C2O)C(O)C1O (stereo partly shown) [O-XMA-C14]
[1]
  Rh (nm), hydrodynamic radius of micelles: 3.5 ± 0.04 nm
[2]
  CMC: ~3.0 µM
  CMC (wt %): ~0.0006 wt %

## CCCCCCCCCCC(CO[C@@H]1OC(CO)[C@@H](O[C@H]2OC(CO)[C@@H](O)C(O)C2O)C(O)C1O)(CO[C@@H]1OC(CO)[C@@H](O[C@H]2OC(CO)[C@@H](O)C(O)C2O)C(O)C1O)Cc1ccc(CC(CCCCCCCCCC)(CO[C@@H]2OC(CO)[C@@H](O[C@H]3OC(CO)[C@@H](O)C(O)C3O)C(O)C2O)CO[C@@H]2OC(CO)[C@@H](O[C@H]3OC(CO)[C@@H](O)C(O)C3O)C(O)C2O)cc1 (stereo partly shown) [P-XMA-C10]
[1]
  Rh (nm), hydrodynamic radius of micelles: 3.5 ± 0.01 nm
  size distribution of micelles (number of micelle sets): two sets of micelles having different radii
[3]
  MelBSt stabilization ability compared with DDM: higher MelBSt stabilization ability than DDM
[3]; [4]
  MelB protein extraction efficiency: extraction efficiency at the same level as DDM
[3]; [5]
  MelB protein extraction / maintained solubilization: higher MelBSt extraction ability than DDM
[3]; 1.5 wt % detergent, 65° C., 90 minutes
  MelB protein extraction: extracted MelBSt
[2]
  CMC: ~7 µM
  CMC (wt %): ~0.001 wt %

## CCCCCCCCCC(CO[C@@H]1OC(CO)[C@@H](O[C@H]2OC(CO)[C@@H](O)C(O)C2O)C(O)C1O)(CO[C@@H]1OC(CO)[C@@H](O[C@H]2OC(CO)[C@@H](O)C(O)C2O)C(O)C1O)Cc1ccc(CC(CCCCCCCCC)(CO[C@@H]2OC(CO)[C@@H](O[C@H]3OC(CO)[C@@H](O)C(O)C3O)C(O)C2O)CO[C@@H]2OC(CO)[C@@H](O[C@H]3OC(CO)[C@@H](O)C(O)C3O)C(O)C2O)cc1 (stereo partly shown) [P-XMA-C9]
[1]
  micelle size compared with DDM: smaller than DDM
  Rh (nm), hydrodynamic radius of micelles: 3.2 ± 0.01 nm
  size distribution of micelles (number of micelle sets): one set of micelles
[3]
  MelBSt stabilization ability compared with DDM: higher MelBSt stabilization ability than DDM
[3]; [4]
  MelB protein extraction efficiency: extraction efficiency at the same level as DDM
[3]; [5]
  MelB protein extraction / maintained solubilization: higher MelBSt extraction ability than DDM
[2]
  CMC: ~10 µM
  CMC (wt %): ~0.002 wt %

## CCCCCCCCCCCC(CO[C@@H]1OC(CO)[C@@H](O[C@@H]2OC(CO)[C@@H](O)C(O)C2O)C(O)C1O)(CO[C@@H]1OC(CO)[C@@H](O[C@@H]2OC(CO)[C@@H](O)C(O)C2O)C(O)C1O)Cc1ccccc1C[C@](CCCCCCCCCCC)(CO[C@@H]1OC(CO)[C@@H](O[C@H]2OC(CO)[C@@H](O)C(O)C2O)C(O)C1O)CO[C@@H]1OC(CO)[C@@H](O[C@@H]2OC(CO)[C@@H](O)C(O)C2O)C(O)C1O (stereo partly shown) [O-XMA-C11]
[1]
  Rh (nm), hydrodynamic radius of micelles: 3.0 ± 0.02 nm
[2]
  CMC (wt %): ~0.0019 wt %

## CCCCCCCCCCCCCCCCCCC(CO[C@@H]1OC(CO)[C@@H](O[C@@H]2OC(CO)[C@@H](O)C(O)C2O)C(O)C1O)(CO[C@@H]1OC(CO)[C@@H](O[C@@H]2OC(CO)[C@@H](O)C(O)C2O)C(O)C1O)Cc1cccc(CC(CCCCCCCCCCCCCCCCCC)(CO[C@@H]2OC(CO)[C@@H](O[C@@H]3OC(CO)[C@@H](O)C(O)C3O)C(O)C2O)CO[C@@H]2OC(CO)[C@@H](O[C@@H]3OC(CO)[C@@H](O)C(O)C3O)C(O)C2O)c1 (stereo partly shown) [M-XMA-C18]
[1]
  Rh (nm), hydrodynamic radius of micelles: 4.1 ± 0.04 nm
[3]; [6]
  MelB protein extraction efficiency: protein extraction efficiency at almost the same level as DDM
[2]
  CMC: ~1.5 µM
  CMC (wt %): ~0.0003 wt %

## CCCCCCCCCCCCCCCC[C@@](CO[C@@H]1OC(CO)[C@@H](O[C@H]2OC(CO)[C@@H](O)C(O)C2O)C(O)C1O)(CO[C@@H]1OC(CO)[C@@H](O[C@@H]2OC(CO)[C@@H](O)C(O)C2O)C(O)C1O)Cc1cccc(C[C@](CCCCCCCCCCCCCCCC)(CO[C@@H]2OC(CO)[C@@H](O[C@H]3OC(CO)[C@@H](O)C(O)C3O)C(O)C2O)CO[C@@H]2CC(CO)[C@@H](O[C@H]3OC(CO)[C@@H](O)C(O)C3O)C(O)C2O)c1 (stereo partly shown) [M-XMA-C16]
[1]
  Rh (nm), hydrodynamic radius of micelles: 3.9 ± 0.04 nm
[3]; [6]
  MelB protein extraction efficiency: protein extraction efficiency at almost the same level as DDM
[2]
  CMC: ~2.0 µM
  CMC (wt %): ~0.0004 wt %

## CCCCCCCCCCCCCCCCC(CO[C@@H]1OC(CO)[C@@H](O[C@@H]2OC(CO)[C@@H](O)C(O)C2O)C(O)C1O)(CO[C@@H]1OC(CO)[C@@H](O[C@@H]2OC(CO)[C@@H](O)C(O)C2O)C(O)C1O)Cc1ccccc1CC(CCCCCCCCCCCCCCCC)(CO[C@@H]1OC(CO)[C@@H](O[C@@H]2OC(CO)[C@@H](O)C(O)C2O)C(O)C1O)CO[C@@H]1OC(CO)[C@@H](O[C@@H]2OC(CO)[C@@H](O)C(O)C2O)C(O)C1O (stereo partly shown) [O-XMA-C16]
[1]
  Rh (nm), hydrodynamic radius of micelles: 3.9 ± 0.06 nm
[2]
  CMC: ~2.0 µM
  CMC (wt %): ~0.0004 wt %

## CCCCCCCCCCCCCCC(CO[C@@H]1OC(CO)[C@@H](O[C@H]2OC(CO)[C@@H](O)C(O)C2O)C(O)C1O)(CO[C@@H]1OC(CO)[C@@H](O[C@H]2OC(CO)[C@@H](O)C(O)C2O)C(O)C1O)Cc1cccc(C[C@](CCCCCCCCCCCCCC)(CO[C@@H]2OC(CO)[C@@H](O[C@H]3OC(CO)[C@@H](O)C(O)C3O)C(O)C2O)CO[C@@H]2OC(CO)[C@@H](O[C@@H]3OC(CO)[C@@H](O)C(O)C3O)C(O)C2O)c1 (stereo partly shown) [M-XMA-C14]
[1]
  Rh (nm), hydrodynamic radius of micelles: 3.6 ± 0.07 nm
[3]; 1.5 wt % detergent, 55° C.
  solubilized MelB retained, percentage of total protein in untreated membrane sample: approximately 70%
[3]; [5]
  MelB protein extraction / maintained solubilization: most effective
[2]
  CMC: ~2.5 µM
  CMC (wt %): ~0.0005 wt %

## CCCCCCCCCCCCCCCCCCC(CO[C@@H]1OC(CO)[C@@H](O[C@@H]2OC(CO)[C@@H](O)C(O)C2O)C(O)C1O)(CO[C@@H]1OC(CO)[C@@H](O[C@@H]2OC(CO)[C@@H](O)C(O)C2O)C(O)C1O)Cc1ccccc1CC(CCCCCCCCCCCCCCCCCC)(CO[C@@H]1OC(CO)[C@@H](O[C@@H]2OC(CO)[C@@H](O)C(O)C2O)C(O)C1O)CO[C@@H]1OC(CO)[C@@H](O[C@@H]2OC(CO)[C@@H](O)C(O)C2O)C(O)C1O (stereo partly shown) [O-XMA-C18]
[1]
  Rh (nm), hydrodynamic radius of micelles: 3.9 ± 0.04 nm
[2]
  CMC (wt %): ~0.0003 wt %

## CCCCCCCCC(CO[C@@H]1OC(CO)[C@@H](O[C@H]2OC(CO)[C@@H](O)C(O)C2O)C(O)C1O)(CO[C@@H]1OC(CO)[C@@H](O[C@H]2OC(CO)[C@@H](O)C(O)C2O)C(O)C1O)Cc1ccc(C[C@](CCCCCCCC)(CO[C@H]2CC(O)[C@H](O[C@H]3OC(CO)[C@@H](O)C(O)C3O)C(CO)O2)CO[C@@H]2OC(CO)[C@@H](O[C@H]3OC(CO)[C@@H](O)C(O)C3O)C(O)C2O)cc1 (stereo partly shown) [P-XMA-C8]
[1]
  micelle size compared with DDM: smaller than DDM
  Rh (nm), hydrodynamic radius of micelles: 2.7 nm and 2.7 ± 0.04 nm
  size distribution of micelles (number of micelle sets): one set of micelles
[2]
  CMC (wt %): ~0.004 wt %

Reference: patent publication US10647738B2, “Xylene-based amphiphilic compound and use thereof” (Industry-University Cooperation Foundation Hanyang …, priority 2016, dated 2020)
